Biological target: T1, CCR2 (Homo sapiens, UniProt P41597)
T1 construct: host or cells: THP-1 (human monocytic cell line)
Assay: MCP-1 Receptor Binding Assay in THP-1 Cells
Conditions: read-out: MCP1B_v3 IC50
Procedure: Compounds of the invention were subjected to various representative biological tests. […] MCP-1 Receptor Binding Assay in THP-1 Cells Human monocytic cell line THP-1 cells were obtained from American Type Culture Collection (Manassas, Va., USA). The THP-1 cells were grown in RPMI-1640 (RPMI: Roswell Park Memorial Institute Medium-cell culture growth media) supplemented with 10% fetal bovine serum in a humidified 5% CO2 atmosphere at 37° C. The cell density was maintained between […].
THP-1 (cells were incubated with 0.5 nM ^125I labeled MCP-1 (Perkin-Elmer Life Sciences, Inc. Boston, Mass.) in the presence of varying concentrations of either unlabeled MCP-1 (R & D Systems, Minneapolis, Minn.) or test compound for 2 hours at 30° C. in a 96 well plate. Cells were then harvested onto a filter plate, dried, and 20 μL of Microscint 20 was added to each well. Plates were counted in a TopCount NXT, Microplate Scintillation & Luminescence Counter (Perkin-Elmer Life Sciences, Inc. Boston, Mass.). Blank values (buffer only) were subtracted from all values and drug treated values were compared to vehicle treated values. 1 μM cold MCP-1 was used for nonspecific binding.

T1 sequence (P41597 whole entry): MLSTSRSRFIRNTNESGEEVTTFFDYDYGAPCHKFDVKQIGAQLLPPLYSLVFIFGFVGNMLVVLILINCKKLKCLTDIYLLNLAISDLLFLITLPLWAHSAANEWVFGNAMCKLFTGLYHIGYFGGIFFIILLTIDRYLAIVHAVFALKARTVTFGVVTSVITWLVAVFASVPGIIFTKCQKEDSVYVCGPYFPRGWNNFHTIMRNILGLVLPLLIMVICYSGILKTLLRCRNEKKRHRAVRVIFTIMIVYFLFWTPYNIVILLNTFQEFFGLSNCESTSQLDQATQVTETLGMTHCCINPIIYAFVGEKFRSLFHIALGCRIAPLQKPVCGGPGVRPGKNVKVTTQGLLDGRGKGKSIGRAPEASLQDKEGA

IC50	Compound
70 nM	COC1COCCC1N[C@@H]1C[C@H]2CN(C(=O)OCCN3CCCC3)C[C@@]2(C(=O)N2CCc3ncc(C(F)(F)F)cc3C2)C1 (relative stereo) [Example 45, (3aR,5R,6aR)-2-(Pyrrolidin-1-yl)ethyl 5-(((3S*,4S*)-3-methoxytetrahydro-2H-pyran-4-yl)amino)-3a-(3-(trifluoromethyl)-5,6,7,8-tetrahydro-1,6-naphthyridine-6-carbonyl)hexahydrocyclopenta[c]pyrrole-2(1H)-carboxyl]
160 nM	COC1COCCC1N[C@@H]1C[C@H]2CN(C(=O)c3ccno3)C[C@@]2(C(=O)N2CCc3ncc(C(F)(F)F)cc3C2)C1 (relative stereo) [Example 71, Isoxazol-5-yl((3aR,5R,6aR)-5-(((3S*,4S*)-3-methoxytetrahydro-2H-pyran-4-yl)amino)-3a-(3-(trifluoromethyl)-5,6,7,8-tetrahydro-1,6-naphthyridine-6-carbonyl)hexahydrocyclopenta-[c]pyrrol-2(1H)-yl)methanone]
500 nM	COC1COCCC1N[C@@H]1C[C@H]2CN(C(=O)CCN3CCCCC3)C[C@@]2(C(=O)N2CCc3ncc(C(F)(F)F)cc3C2)C1 (relative stereo) [Example 79, 1-((3aR,5R,6aR)-5-(((3S*,4S*)-3-Methoxytetrahydro-2H-pyran-4-yl)amino)-3a-(3-(trifluoromethyl)-5,6,7,8-tetrahydro-1,6-naphthyridine-6-carbonyl)hexahydrocyclopenta-[c]pyrrol-2(1H)-yl)-3-(piperidin-1-yl)propan-1-one]
630 nM	CCN1C[C@@H]2C[C@@H](NC3CCOCC3OC)C[C@]2(C(=O)N2CCc3ncc(C(F)(F)F)cc3C2)C1 (relative stereo) [Example 98, ((3aR,5R,6aR)-2-Ethyl-5-(((3S*,4S*)-3-methoxytetrahydro-2H-pyran-4-yl)amino)octahydrocyclopenta[c]pyrrol-3a-yl)(3-(trifluoromethyl)-7,8-dihydro-1,6-naphthyridin-6(5H)-yl)methanone]
380 nM	COCCNC(=O)N1C[C@@H]2C[C@@H](NC3CCOCC3OC)C[C@]2(C(=O)N2CCc3ncc(C(F)(F)F)cc3C2)C1 (relative stereo) [Example 19, (3aR,5R,6aR)-N-(2-Methoxyethyl)-5-(((3S*,4S*)-3-methoxytetrahydro-2H-pyran-4-yl)amino)-3a-(3-(trifluoromethyl)-5,6,7,8-tetrahydro-1,6-naphthyridine-6-carbonyl)hexahydrocyclopenta[c]pyrrole-2(1H)-carboxamide]
30 nM	COC1COCCC1N[C@@H]1C[C@H]2CN(C(=O)c3cocn3)C[C@@]2(C(=O)N2CCc3ncc(C(F)(F)F)cc3C2)C1 (relative stereo) [Example 72, ((3aR,5R,6aR)-5-(((3S*,4S*)-3-Methoxytetrahydro-2H-pyran-4-yl)amino)-2-(oxazole-4-carbonyl)octahydrocyclopenta[c]pyrrol-3a-yl)(3-(trifluoromethyl)-7,8-dihydro-1,6-naphthyridin-6(5H)-yl)methanone]
60 nM	COC1COCCC1N[C@@H]1C[C@H]2CN(C(=O)OCCC(C)(C)O)C[C@@]2(C(=O)N2CCc3ncc(C(F)(F)F)cc3C2)C1 (relative stereo) [Example 62, (3aR,5R,6aR)-3-Hydroxy-3-methylbutyl 5-(((3S*,4S*)-3-methoxytetrahydro-2H-pyran-4-yl)amino)-3a-(3-(trifluoromethyl)-5,6,7,8-tetrahydro-1,6-naphthyridine-6-carbonyl)-hexahydrocyclopenta[c]pyrrole-2(1H)-carboxylate]
90 nM	COC1COCCC1N(C(=S)NCC(C)C)[C@@H]1C[C@H]2CN(C(=S)NCC(C)C)C[C@@]2(C(=O)N2CCc3ncc(C(F)(F)F)cc3C2)C1 (relative stereo) [Example 30, (3aR,5R,6aR)-N-Isobutyl-5-((3S*,4S*)-3-isobutyl-1-(3-methoxytetrahydro-2H-pyran-4-yl)thioureido)-3a-(3-(trifluoromethyl)-5,6,7,8-tetrahydro-1,6-naphthyridine-6-carbonyl)hexahydrocyclopenta[c]pyrrole-2(1H)-carbothioamide]
410 nM	COC1COCCC1N[C@@H]1C[C@H]2CN(S(=O)(=O)NCc3ccccc3)C[C@@]2(C(=O)N2CCc3ncc(C(F)(F)F)cc3C2)C1 (relative stereo) [Example 33, (3aR,5R,6aR)-N-Benzyl-5-(((3S*,4S*)-3-methoxytetrahydro-2H-pyran-4-yl)amino)-3a-(3-(trifluoromethyl)-5,6,7,8-tetrahydro-1,6-naphthyridine-6-carbonyl)hexahydrocyclopenta[c]pyrrole-2(1H)-sulfonamide]
40 nM	COC1COCCC1N[C@@H]1C[C@H]2CN(C(=O)c3nccs3)C[C@@]2(C(=O)N2CCc3ncc(C(F)(F)F)cc3C2)C1 (relative stereo) [Example 81, ((3aR,5R,6aR)-5-(((3S*,4S*)-3-Methoxytetrahydro-2H-pyran-4-yl)amino)-2-(thiazole-2-carbonyl)octahydrocyclopenta[c]pyrrol-3a-yl)(3-(trifluoromethyl)-7,8-dihydro-1,6-naphthyridin-6(5H)-yl)methanone]
100 nM	COC1COCCC1N[C@@H]1C[C@H]2CN(C(N)=O)C[C@@]2(C(=O)NCc2cc(C(F)(F)F)cc(C(F)(F)F)c2)C1 (relative stereo) [Example 12, (3aR,5R,6aR)-N^3a-(3,5-Bis(trifluoromethyl)benzyl)-5-(((3S*,4S*)-3-methoxytetrahydro-2H-pyran-4-yl)amino)hexahydrocyclopenta[c]pyrrole-2,3a(1H)-dicarboxamide]
220 nM	COC1COCCC1N[C@@H]1C[C@H]2CN(C(=O)OCc3cccc(C#N)c3)C[C@@]2(C(=O)N2CCc3ncc(C(F)(F)F)cc3C2)C1 (stereo partly drawn) [Example 59, (3aR,5R,6aR)-3-Cyanobenzyl 5-((3-methoxytetrahydro-2H-pyran-4-yl)amino)-3a-(3-(trifluoromethyl)-5,6,7,8-tetrahydro-1,6-naphthyridine-6-carbonyl)hexahydrocyclopenta-[c]pyrrole-2(1H)-carboxylate]
1100 nM	COC1COCCC1N[C@@H]1C[C@H]2CN(S(=O)(=O)Cc3ccccc3)C[C@@]2(C(=O)N2CCc3ncc(C(F)(F)F)cc3C2)C1 (relative stereo) [Example 92, ((3aR,5R,6aR)-2-(Benzylsulfonyl)-5-(((3S*,4S*)-3-methoxytetrahydro-2H-pyran-4-yl)amino)octahydrocyclopenta[c]pyrrol-3a-yl)(3-(trifluoromethyl)-7,8-dihydro-1,6-naphthyridin-6(5H)-yl)methanone]
1220 nM	COC1COCCC1N[C@@H]1C[C@H]2CN(C(C)C)C[C@@]2(C(=O)N2CCc3ncc(C(F)(F)F)cc3C2)C1 (relative stereo) [Example 96, ((3aR,5R,6aR)-2-Isopropyl-5-(((3S*,4S*)-3-methoxytetrahydro-2H-pyran-4-yl)amino)octahydrocyclopenta[c]pyrrol-3a-yl)(3-(trifluoromethyl)-7,8-dihydro-1,6-naphthyridin-6(5H)-yl)methanone]
3660 nM	COC1COCCC1N[C@@H]1C[C@H]2CN(C3=NCCS3)C[C@@]2(C(=O)N2CCc3ncc(C(F)(F)F)cc3C2)C1 (relative stereo) [Example 112, ((3aR,5R,6aR)-2-(4,5-Dihydrothiazol-2-yl)-5-(((3S*,4S*)-3-methoxytetrahydro-2H-pyran-4-yl)amino)octahydrocyclopenta[c]pyrrol-3a-yl)(3-(trifluoromethyl)-7,8-dihydro-1,6-naphthyridin-6(5H)-yl)methanone]
220 nM	COC1COCCC1N[C@@H]1C[C@H]2CN(C(=O)N(C)C)C[C@@]2(C(=O)N2CCc3ncc(C(F)(F)F)cc3C2)C1 (relative stereo) [Example 21, (3aR,5R,6aR)-5-(((3S*,4S*)-3-Methoxytetrahydro-2H-pyran-4-yl)amino)-N,N-dimethyl-3a-(3-(trifluoromethyl)-5,6,7,8-tetrahydro-1,6-naphthyridine-6-carbonyl)hexahydrocyclopenta[c]pyrrole-2(1H)-carboxamide]
30 nM	CO[C@@H]1COCC[C@@H]1N[C@@H]1C[C@H]2CN(C(=O)OCCC3CCOCC3)C[C@@]2(C(=O)N2CCc3ncc(C(F)(F)F)cc3C2)C1 [Example 43, (3aR,5R,6aR)-2-(Tetrahydro-2H-pyran-4-yl)ethyl 5-(((3S,4S)-3-methoxytetrahydro-2H-pyran-4-yl)amino)-3a-(3-(trifluoromethyl)-5,6,7,8-tetrahydro-1,6-naphthyridine-6-carbonyl)hexahydrocyclopenta[c]pyrrole-2(1H)-carboxylate]
230 nM	COC1COCCC1N[C@@H]1C[C@H]2CN(C(=O)CCN3CCOCC3)C[C@@]2(C(=O)N2CCc3ncc(C(F)(F)F)cc3C2)C1 (relative stereo) [Example 80, 1-((3aR,5R,6aR)-5-(((3S*,4S*)-3-Methoxytetrahydro-2H-pyran-4-yl)amino)-3a-(3-(trifluoromethyl)-5,6,7,8-tetrahydro-1,6-naphthyridine-6-carbonyl)hexahydrocyclopenta-[c]pyrrol-2(1H)-yl)-3-morpholinopropan-1-one]
320 nM	COC1COCCC1N[C@@H]1C[C@H]2CN(C(N)=O)C[C@@]2(C(=O)NCc2cccc(C(F)(F)F)c2)C1 (relative stereo) [Example 10, (3aR,5R,6aR)-5-(((3S*,4S*)-3-Methoxytetrahydro-2H-pyran-4-yl)amino)-N^3a-(3-(trifluoromethyl)benzyl)hexahydrocyclopenta[c]pyrrole-2,3a(1H)-dicarboxamide]

Source: patent US9024017B2, “Octahydro-cyclopentapyrrolyl antagonists of CCR2” (Janssen Pharmaceutica NV, priority 2012, dated 2015)
